PMC8306933 (Molecules, 2021)
Read-outs that look alike come from different tables or passages of the source.

Tests used:
[1] = target: T1, Acetylcholinesterase from electric eel (Electrophorus electricus, UniProt O42275); experiment: biochemical; assay type: biochemical
T1 construct: purchased Sigma-Aldrich (St. Louis, MO, USA) type VI-s; host or cells: electric eel
Source text: (§1) Trizma hydrochloride (Tris-HCl) and bovine serum albumin (BSA) were obtained from Sigma–Aldrich (Steinheim, Germany). Deionized water was produced using a Milli-Q water purification system (Millipore, Bedford, MA, USA). Dulbecco’s Modified Eagle Medium (DMEM) was collected from Gibco (Japan), and fetal bovine serum (FBS) was also collected from Gibco (Waltham, MA, USA). Insulin and penicillin G/streptomycin were collected from Wako (Fujifilm Wako Pure Chemical Corporation, Osaka, Japan), the MTS kit was collected from Promega (Madison, WI, USA), and poly-2-hydroxyethyl methacrylate was collected from Sigma-Aldrich (Taufkirchen, Germany).
(§2) The cholinesterase inhibitory (AChE/BChE) properties were ascertained based on Ellman’s method, as previously described. […] In the AChE inhibitory assay, 25 µL of sample solution (0–1 mM) along with 50 µL of buffer B (50 mM Tris-HCl, pH 8 containing 0.1% BSA), 125 µL of DTNB (3 mM), and 25 µL of 0.05 U/mL AChE were incubated at 37 °C for 10 min. After incubation, 25 µL of acetylthiocholine iodide (5 mM) as AChE substrate was incorporated to the solution. The BChE activity was determined following the same protocol using 25 µL of 5 mM S-butyrylthiocholine chloride as BChE substrate and 0.05 U/mL BChE as enzyme. […] The percentage of inhibition was calculated and the results were expressed as IC50 (µM).

[2] = target: T2, α-amylase from porcine pancreas (Sus scrofa, UniProt P00690); experiment: biochemical; assay type: biochemical
T2 construct: purchased Sigma-Aldrich (St. Louis, MO, USA); host or cells: porcine pancreas
T2 sequence (P00690 16-511): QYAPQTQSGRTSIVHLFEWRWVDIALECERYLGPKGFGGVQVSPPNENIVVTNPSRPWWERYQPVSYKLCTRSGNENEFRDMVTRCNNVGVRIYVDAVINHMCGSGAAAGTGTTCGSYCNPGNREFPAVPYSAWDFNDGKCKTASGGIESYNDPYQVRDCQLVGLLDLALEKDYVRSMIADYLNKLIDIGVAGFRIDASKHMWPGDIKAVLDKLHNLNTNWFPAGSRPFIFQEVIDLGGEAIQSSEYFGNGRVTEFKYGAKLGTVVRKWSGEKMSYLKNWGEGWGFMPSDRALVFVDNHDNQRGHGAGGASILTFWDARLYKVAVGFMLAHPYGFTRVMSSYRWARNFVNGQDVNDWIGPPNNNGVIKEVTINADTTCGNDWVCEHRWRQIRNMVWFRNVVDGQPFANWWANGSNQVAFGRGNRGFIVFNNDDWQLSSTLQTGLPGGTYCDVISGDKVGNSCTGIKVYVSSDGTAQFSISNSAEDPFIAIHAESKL
Source text: as §1
α-Amylase inhibitory activity was determined following the starch-iodine method with some modifications. A 1% starch solution was prepared by 1 g of starch in 10 mL of distilled water following gentle boiling and cooling into 100 mL. A reaction mixture, 25 μL sample (0–1 mM) and 50 μL α-amylase (5 U/mL) in phosphate buffer, was incubated at 37 °C for 10 min. Afterwards, the starch (100 μL, 1% w/v) solution was added to the mixture and incubated again at 37 °C for 10 min. […] After adding the iodine/iodide solution, based on the colour change, the absorbance was monitored at 630 nm for 10 min. […] The percentage of inhibition was calculated and results were expressed as IC50 (µM).

[3] = target: T3, butyrylcholinesterase from equine serum (Equus caballus, UniProt P81908); experiment: BChE inhibition (Ellman's method); assay type: biochemical
T3 construct: purchased Sigma-Aldrich (St. Louis, MO, USA); host or cells: equine serum
T3 sequence (P81908 whole entry): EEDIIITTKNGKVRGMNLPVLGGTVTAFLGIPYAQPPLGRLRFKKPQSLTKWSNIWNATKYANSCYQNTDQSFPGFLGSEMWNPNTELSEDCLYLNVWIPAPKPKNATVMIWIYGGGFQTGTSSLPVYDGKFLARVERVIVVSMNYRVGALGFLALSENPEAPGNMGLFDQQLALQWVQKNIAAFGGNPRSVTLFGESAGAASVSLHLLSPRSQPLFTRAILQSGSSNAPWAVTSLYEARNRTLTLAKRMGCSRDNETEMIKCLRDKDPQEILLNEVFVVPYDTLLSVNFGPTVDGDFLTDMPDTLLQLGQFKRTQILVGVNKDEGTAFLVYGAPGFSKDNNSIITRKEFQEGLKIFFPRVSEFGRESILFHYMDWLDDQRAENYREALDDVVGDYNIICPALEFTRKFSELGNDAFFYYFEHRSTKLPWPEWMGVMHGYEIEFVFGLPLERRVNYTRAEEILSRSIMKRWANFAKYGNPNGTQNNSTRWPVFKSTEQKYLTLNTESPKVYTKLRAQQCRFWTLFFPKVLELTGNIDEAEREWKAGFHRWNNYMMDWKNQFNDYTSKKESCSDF
Source text: as §1, §2

[4] = system: Hs578T cells; experiment: Cytotoxicity / cell viability (MTS assay), Hs578T; assay type: cell-based; settings: for IC50: Homo sapiens, Hs-578T, TNBC cell line Hs578T, read-out: IC50 cytotoxic activity Hs578T; for reduction of the number of TNBC cells Hs578T: after three days of treatment at IC50
Experimental: (§3) The human TNBC cell lines Hs578T and MDA-MB-231 were obtained from the American Type Culture Collection and cultured in Dulbecco’s Modified Eagle Medium (DMEM) supplemented with fetal bovine serum (FBS) (10% v/v), insulin (Hs578T cell only), and penicillin G/streptomycin 1% (v/v) at 37 °C under 5% CO2. The absence of culture contamination by Mycoplasma species was confirmed before the experiments.
(§4) The activity of the selected compounds on breast cancer cell viability were determined employing the MTS assay. Briefly, 5 × 10^3 cells were seeded in each well of a 96-well plate for 24 h, and growth medium containing different compounds was added and incubated in different periods. A total of 20 µL of the MTS kit was added to each well, and the cells were incubated for 2 h. After incubation, the absorbance was measured at 490 nm with an enzyme-linked immunosorbent assay microplate reader (BioTek Instruments, USA). The absorbance value is directly proportional to the number of living cells.

[5] = system: MDA-MB-231 cells; experiment: Cytotoxicity / cell viability (MTS assay), MDA-MB-231; assay type: cell-based; settings: for IC50: Homo sapiens, TNBC cell line MDA-MB-231, read-out: IC50 cytotoxic activity MDA-MB-231; for reduction of the number of TNBC cells MDA-MB-231: after three days of treatment at IC50
Experimental: as §3, §4

[6] = system: Hs578T cells; experiment: Transwell cell migration assay, Hs578T; assay type: cell-based, human; settings: at IC50; vs DMSO control
Experimental: as §3
(§5) The effects of the selected compounds on breast cancer cell migration were evaluated in transwell chambers according to a published protocol. Briefly, the Hs578T and MDA-MB-231 cells were treated with the tested compounds for 24 h, trypsinized, and washed twice with serum-free medium. Approximately 3 × 10^4 pretreated cells, suspended in 100 μL of the serum-free medium, were seeded to the upper chamber. The lower chambers were filled with approximately 500 μL of DMEM medium with 10% FBS and incubated for 12 h. After incubation, the cells from the upper surface were wiped off with cotton swabs, while the migrated cells on the opposite side of the transwell were washed twice with PBS, fixed with 4% paraformaldehyde, and finally stained with crystal violet solution. After 2 washes with water (Milli Q), several microscopic fields were taken randomly, and the migrated cells were counted using ImageJ software.

[7] = system: MDA-MB-231 cells; experiment: Tumor-sphere formation assay, MDA-MB-231; assay type: cell-based, human; settings: in vitro tumor-sphere formation
Experimental: as §3
(§6) Three-dimensional or tumor-sphere culture is a recently introduced in vitro technique which maintains a physiological environment which closely resembles that of in vivo conditions. This technique has now been widely used for the screening of anticancer moieties. In vitro tumor-sphere formation assay was performed following a reported protocol. Briefly, approximately 3 × 10^3 cells were resuspended in a poly-2-hydroxyethyl methacrylate coated 6-well plate containing a sphere-forming medium with or without tested compounds and incubated for one week. The number of tumor spheres were counted, and the diameter of each tumor sphere was measured.

[8] = system: Hs578T cells; experiment: Tumor-sphere formation assay, Hs578T; assay type: cell-based, human; settings: in vitro tumor-sphere formation
Experimental: as §3, §6

[9] = system: MDA-MB-231 cells; experiment: Transwell cell migration assay, MDA-MB-231; assay type: cell-based, human; settings: at IC50; vs DMSO control
Experimental: as §3, §5

[10] = mean ± SD (n = 3), tested 0–1 mM
[11] = mean ± SD (n = 3), tested 0–1 mM, read-out: IC50 AChE
[12] = mean ± SD (n = 3), mammalian α-amylase, read-out: IC50 α-Amylase
[13] = mean ± SD (n = 3), tested 0–1 mM, read-out: IC50 BChE
[14] = mean ± SD (n = 3), mammalian α-amylase

T1 sequence (O42275 24-633): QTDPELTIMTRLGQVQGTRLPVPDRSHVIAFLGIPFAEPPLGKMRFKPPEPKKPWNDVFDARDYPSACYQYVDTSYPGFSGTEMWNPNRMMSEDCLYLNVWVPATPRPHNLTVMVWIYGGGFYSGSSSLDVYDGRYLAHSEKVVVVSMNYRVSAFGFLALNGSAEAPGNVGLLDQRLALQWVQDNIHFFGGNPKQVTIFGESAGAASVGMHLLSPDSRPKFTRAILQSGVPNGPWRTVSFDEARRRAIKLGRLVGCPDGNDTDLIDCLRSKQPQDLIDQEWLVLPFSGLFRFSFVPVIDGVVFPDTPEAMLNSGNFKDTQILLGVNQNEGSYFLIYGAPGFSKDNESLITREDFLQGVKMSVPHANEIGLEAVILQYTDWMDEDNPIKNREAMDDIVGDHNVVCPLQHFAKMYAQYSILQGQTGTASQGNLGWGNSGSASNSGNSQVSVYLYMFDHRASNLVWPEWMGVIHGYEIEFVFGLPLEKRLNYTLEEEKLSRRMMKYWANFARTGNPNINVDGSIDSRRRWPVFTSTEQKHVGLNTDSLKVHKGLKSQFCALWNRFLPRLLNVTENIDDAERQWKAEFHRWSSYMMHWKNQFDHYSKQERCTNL

SMILES	IC50 AChE [1, 10]	IC50 [1, 11]	IC50 [2, 12]	IC50 [3, 13]	IC50 [4]	IC50 [5]	IC50 [1]	IC50 [2]	IC50 [3]	inhibition of migration of Hs578T cell [6]	tumor-sphere size and number, MDA-MB-231 [7]	reduction of the number of TNBC cells Hs578T [4]	reduction of the number of TNBC cells MDA-MB-231 [5]	tumor-sphere size and number, Hs578T [8]	inhibition of migration of MDA-MB-231 [9]	IC50 α-Amylase [2, 14]
O=C(O)C[C@H]1CCC(=O)[C@@H]1C/C=C\CCO[C@@H]1O[C@H](COC(=O)/C=C/c2ccc(O)c(O)c2)[C@@H](O)[C@H](O)[C@H]1O [Compound 4, 6′-O-caffeoyl-12-glucopyranosyloxyjasmonic acid]	no inhibitory activity	> 1000 µM	13 ± 1.3 µM	> 1000 µM	210 ± 5.1 µM	199 ± 3.1 µM	–	–	–	–	–	–	–	–	–	–
CC1=C(C(=O)O)C2CC(=O)c3cc(CC(C)O)c(OC4OC(CO)C(O)C(O)C4OC4OC(CO)C(O)C(O)C4O)c(O)c3C2(C)CC1 [Compound 2, (5R,10S,16R)-11,16-dihydroxy-12-O-β-D-glucopyranosyl-(1→2)-β-D-glucopyranosyl-17(15→16),18(4→3)-diabeo-4-carboxy-3,8,11,13-abietatetraene-7-one]	–	–	–	–	–	–	139 ± 7.2 µM	64.6 ± 7.1 µM	> 1000 µM	–	–	–	–	–	–	–
CC1OC(OC2C(O)C(OCCc3ccccc3)OC(CO)C2OC(=O)C=Cc2ccc(O)c(O)c2)C(O)C(O)C1O (stereo not drawn) [Compound 5, jionoside C]	–	160 ± 12.2 µM	24.9 ± 0.4 µM	> 1000 µM	85.3 ± 2.4 µM	96.5 ± 1.5 µM	–	–	–	43%	reduced the cell size (Figure 5A,C) and the cell number significantly	42%	43%	reduced the cell size (Figure 5A,C) and the cell number significantly	37%	–
COc1ccc(CCO[C@@H]2O[C@H](CO)[C@@H](OC(=O)/C=C/c3ccc(O)c(O)c3)[C@H](O[C@@H]3O[C@@H](C)[C@H](O)[C@@H](O)[C@H]3O)[C@H]2O)cc1O [Compound 6, jionoside D]	no inhibitory activity	> 1000 µM	3.4 ± 0.2 µM	> 1000 µM	–	–	–	–	–	–	–	–	–	–	–	–
CC1=C(CO)[C@@H]2CC(=O)c3cc(C[C@@H](C)O)c(O[C@@H]4O[C@@H](CO)C(O)[C@H](O)[C@@H]4O[C@@H]4O[C@H](CO)[C@@H](O)[C@H](O)[C@@H]4O)c(O)c3[C@@]2(C)CC1 (stereo partly drawn) [Compound 1, (5R,10S,16R)-11,16,19-trihydroxy-12-O-β-D-glucopyranosyl-(1→2)-β-D-glucopyranosyl-17(15→16),18(4→3)-diabeo-3,8,11,13-abietatetraene-7-one]	–	–	–	–	128 ± 2.2 µM	122 ± 1.2 µM	191 ± 10.2 µM	18.5 ± 0.6 µM	> 1000 µM	–	–	–	–	–	–	–
COc1ccc(CCO[C@@H]2O[C@H](CO)[C@@H](OC(=O)/C=C/c3ccc(O)c(O)c3)[C@H](O[C@@H]3O[C@@H](C)[C@H](O)[C@@H](O)[C@H]3O)[C@H]2O)cc1OC [Compound 7, brachynoside]	no inhibitory activity	> 1000 µM	221 ± 24.5 µM	> 1000 µM	–	–	–	–	–	–	–	–	–	–	–	almost inactive
COc1cc(/C=C/C(=O)O[C@H]2[C@H](O[C@@H]3O[C@@H](C)[C@H](O)[C@@H](O)[C@H]3O[C@@H]3O[C@H](CO)[C@@H](O)[C@H](O)[C@H]3O)[C@@H](O)[C@H](OCCc3ccc(O)c(O)c3)O[C@@H]2CO)ccc1O [Compound 8, incanoside C]	–	178 ± 11.3 µM	19.8 ± 0.5 µM	> 1000 µM	–	–	–	–	–	–	–	–	–	–	–	–
CC1=CC(=O)CC(C)(C)[C@H]1CC[C@@H](C)O[C@@H]1O[C@H](CO)[C@@H](O)[C@H](O)[C@H]1O [Compound 3, byzantionoside B]	no inhibitory activity	> 1000 µM	284 ± 13.2 µM	> 1000 µM	94.7 ± 1.3 µM	118 ± 3.3 µM	–	–	–	50%	–	44%	48%	–	40%	almost inactive
